According to patent US6426343B1, “Preparation and use of a specific GABA-Aα5 receptor ligand for treatment of Alzheimer's disease” (Merck Sharp & Dohme Ltd., priority 1995, dated 2002):

What was measured:
[1] = test system: male Sprague Dawley rats; assay: Pro-convulsant testing, acute treatment, PTZ infusion; format: in vivo, rat; conditions: 0.5-4.0 mg/kg IP 30 min prior to PTZ infusion
Experimental: Sixty naive male Sprague Dawley rats (225-265 g) housed in groups of four with food and water freely available, served as subjects. The rats were assigned to one of six groups and given: Vehicle or 0.5, 1.0, 2.0, 4.0 mg/kg of […] or 10.0 mg/kg of the non-selective receptor inverse agonist, CGS 8216, a known pro-convulsant agent. Vehicle, FG 8094 or CGS 8216 was administered IP 30 min prior to an infusion of the convulsant, pentylenetetrazole (PTZ, 40 mg/ml). PTZ was infused into the tail vein of the rat at the rate of 1.0 ml/min. The latency to clonic and tonic seizure were recorded and the threshold to each was calculated using the equation: Threshold dose=infusion rate (ml/s)×PTZ (mg/ml)×(1000/rats weight)×latency(s).

[2] = target: α5 subtype containing GABA-A receptors (Rattus norvegicus, UniProt P18508+P19969); assay: In vivo [3H]FG 8094 binding after pellet implantation; conditions: SC pellet, after first four swim trials, [3H]FG 8094 IV
Experimental: In a second experiment the vehicle or FG pellets were implanted into rats exactly as described above. However, after the first four swim trials the animals were injected (IV) with [^3H]FG 8094 and three mins later the brains of the animals were rapidly removed.

[3] = Blood levels after subcutaneous pellet implantation; conditions: 1.5 mg in hydroxy propylmethylcellulose pellet, rats
[4] = test system: benzodiazepine binding site of α2/3-containing GABA receptors; assay: In vivo [3H]Ro 15-1788 binding, spinal cord; conditions: male, Swiss-Webster, mouse, in vivo, 1 mg/kg
Experimental: (§1) The in vivo binding of [^3H]Ro 15-1788 to mouse brain was performed essentially as described by Goeders and Kuhar (1985). Male Swiss-Webster mice received a 0.9% NaCl solution containing 50 mCi/kg of [^3H]Ro 15-1788 (0.05 ml/10 g of body weight) via the tail vein. […] Each mouse brain was then rapidly removed, homogenised in 5.0 ml of 50 mM Tris HCl, 5.0 mM EDTA, pH 7.4 at 4° C. using an ultra-turrax homogeniser for 10 s at setting 5. In a separate series of experiments different brain regions, selected for their preferential expression of particular GABA subtypes were also examined. Binding of [^3H]Ro 15-1788 to cerebellum is almost exclusively α1-like (Quirk et al, 1994), whereas binding to spinal cord is indicative of binding to receptors containing α2 or α3-subtypes, α1, α4 and α5 are rare or absent in this region (Wisden et al, 1992). Brains were rapidly dissected into forebrain and cerebellum and the spinal cord was also removed. Each forebrain was homogenised in 4.0 ml of buffer (approximately 14 ml/g wet weight of tissue), each cerebellum was homogenised in 1.0 ml of buffer (approximately 14 ml/g wet weight of tissue) and each spinal cord in 1.0 ml of buffer (approximately 20.0 mg/g wet weight of tissue). Volumes ([…]) of homogenate were filtered rapidly through GF/B filters, washed with 2×5.0 ml volumes of ice-cold buffer and the residual radioactivity was counted by liquid scintillation spectroscopy.
(§2) Mice were injected intraperitoneally with FG 8094, 10 mg/kg or 1 mg/kg, 30 minutes prior to sacrifice and [^3H]Ro 15-1788 (0.1 mCi/g). Brain regions were dissected, homogenised and filtered as described in methods.

[5] = test system: Spinal cord (α2/3); assay: In vivo [3H]Ro 15-1788 binding, spinal cord; conditions: for percentage inhibition of in vivo [3H]Ro 15-1788 binding, spinal cord: 30 min, mean±SEM, relative to vehicle
Experimental: as §1, §2

[6] = test system: GABAA receptors; assay: In vivo [3H]Ro 15-1788 binding in whole mouse brain
Experimental: as §1, with “Each forebrain was homogenised in 4.0 ml of buffer (approximately 14 ml/g wet weight of tissue), each cerebellum was homogenised in 1.0 ml of buffer (approximately 14 ml/g wet weight of tissue) and each spinal cord in 1.0 ml of buffer (approximately 20.0 mg/g wet weight of tissue).” left out

[7] = target: T1, α2β3γ2 (Homo sapiens, UniProt P18507+P47869); assay: Radioligand binding, membranes of stably transfected cells
T1 construct: expressed in transfected cells

[8] = target: α1β3γ2 (Homo sapiens, UniProt P14867+P18507); assay: biochemical
Experimental: Radioligand binding studies were carried out using membranes prepared from cells stably transfected with the following subunit combinations:—α1β3γ2, α2β3γ2, α3β3γ2, α5β3γ2, α6β3γ2. Incubations were carried out using 20-100 mg of membrane protein in a total volume of 0.5 ml in 10 mM Tris-HCl, 1 mM EDTA pH 7.4 for one hour at room temperature prior to termination through Whatman GF/C filters followed by 3×3 ml washes with 5 mM Tris-HCl pH 7.5 and scintillation counting. […] Ki values were calculated according to the Cheng-Prussof equation.
Ki values were calculated according to the Cheng-Prussof equation. Data shown are mean±SEM values for 3-6 determinations.

[9] = target: T2, α3β3γ2 (Homo sapiens, UniProt P18507+P34903); assay: Radioligand binding, membranes of stably transfected cells
T2 construct: expressed in transfected cells

[10] = test system: rats; assay: Pro-convulsant testing, chronic treatment, PTZ infusion; format: in vivo, rat; conditions: 0.1, 0.3, 1.0 mg/kg IP, 24 doses, final dose 48 h before testing
Experimental: The rats used in this study received chronic treatment with FG 8094 during a MWM experiment. The rats were dosed IP once per day (Monday to Friday) and received a total of 24 doses. Following each drug administration rats were tested in a MWM and received the final dose of drug 48 h prior to convulsant testing. The subjects were assigned to one of four treatment groups (n=8) and given either Vehicle, 0.1, 0.3, or 1.0 mg/kg of FG 8094.
On the day of proconvulsant testing, the rats were restrained and pentylenetetrazole (PTZ, 40.0 mg/ml) was infused as described above. The latency(s) to both clonic and tonic (full extension) convulsion was recorded. Latency data were transformed to yield the dose of PTZ needed to reach the threshold of both clonic and tonic seizures.

[11] = test system: non-α5 subtype containing GABA-A receptors; assay: In vivo [3H]Ro 15-1788 binding after pellet implantation; parameters: species or system rat; conditions: SC pellet
[12] = target: T3, α1β2γ2 (Homo sapiens, UniProt P14867+P18507); assay: Two electrode voltage-clamp, modulation of GABA EC20 current in Xenopus oocytes; format: cell-based; conditions: 1 μM
T3 construct: expressed in transfected cells; host or cells: Xenopus oocytes, nuclear injection of cDNAs in pCDM8
Experimental: (§3) Binding studies on transfected cells containing α1β3γ2S, α2β3γ2S, and α5β3γ2S have identified compounds with α5 selectivity. These compounds were studied using electrophysiological techniques (Wafford et al, 1993) to determine their functional effects on […], α2β2γ2S, α3β2γ2S, α5β2γ2S and α6β2γ2S GABAA receptors expressed in Xenopus oocytes. Oocyte nuclei were directly injected with 10.0-20.0 nl of the relevant cDNAs (6.0 ng/μl) engineered into the expression vector pCDM8. Following incubation for 24 h, oocytes were placed in a […] and perfused with saline. By using the two electrode voltage-clamp recording method, GABA activated currents could be measured by bathing the cell in a solution containing GABA. Firstly a reproducible current response was established using a GABA concentration which gave approximately 20% of the maximal GABA response that could be elicited (EC20). […] The response could be potentiated by a BZ receptor agonist or inhibited by BZ receptor inverse agonist

[13] = target: T4, α3β2γ2 (Homo sapiens, UniProt P18507+P34903); assay: as above; format: cell-based; conditions: 1 μM
T4 construct: expressed in transfected cells; host or cells: Xenopus oocytes, nuclear injection of cDNAs in pCDM8
Experimental: as §3

[14] = target: T5, α2β2γ2 (Homo sapiens, UniProt P18507+P47869); assay: as above; format: cell-based; conditions: 1 μM
T5 construct: expressed in transfected cells; host or cells: Xenopus oocytes, nuclear injection of cDNAs in pCDM8
Experimental: as §3

[15] = target: T6, α5β2γ2 (Homo sapiens, UniProt P18507+P31644); assay: as above; format: cell-based; conditions: 1 μM
T6 construct: expressed in transfected cells; host or cells: Xenopus oocytes, nuclear injection of cDNAs in pCDM8
Experimental: as §3

T1 sequence (P47869 29-451): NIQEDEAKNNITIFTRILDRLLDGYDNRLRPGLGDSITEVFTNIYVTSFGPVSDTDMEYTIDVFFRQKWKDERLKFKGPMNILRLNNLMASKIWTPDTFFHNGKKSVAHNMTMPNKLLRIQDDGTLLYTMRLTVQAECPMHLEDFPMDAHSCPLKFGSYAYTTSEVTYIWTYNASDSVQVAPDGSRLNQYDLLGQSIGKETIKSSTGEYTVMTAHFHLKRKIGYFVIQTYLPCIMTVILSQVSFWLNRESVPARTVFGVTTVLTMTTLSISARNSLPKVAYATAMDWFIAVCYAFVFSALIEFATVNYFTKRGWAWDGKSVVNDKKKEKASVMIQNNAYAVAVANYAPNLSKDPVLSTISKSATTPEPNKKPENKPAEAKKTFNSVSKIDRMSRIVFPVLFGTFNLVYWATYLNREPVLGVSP
T1 sequence (P28472 26-473 partner): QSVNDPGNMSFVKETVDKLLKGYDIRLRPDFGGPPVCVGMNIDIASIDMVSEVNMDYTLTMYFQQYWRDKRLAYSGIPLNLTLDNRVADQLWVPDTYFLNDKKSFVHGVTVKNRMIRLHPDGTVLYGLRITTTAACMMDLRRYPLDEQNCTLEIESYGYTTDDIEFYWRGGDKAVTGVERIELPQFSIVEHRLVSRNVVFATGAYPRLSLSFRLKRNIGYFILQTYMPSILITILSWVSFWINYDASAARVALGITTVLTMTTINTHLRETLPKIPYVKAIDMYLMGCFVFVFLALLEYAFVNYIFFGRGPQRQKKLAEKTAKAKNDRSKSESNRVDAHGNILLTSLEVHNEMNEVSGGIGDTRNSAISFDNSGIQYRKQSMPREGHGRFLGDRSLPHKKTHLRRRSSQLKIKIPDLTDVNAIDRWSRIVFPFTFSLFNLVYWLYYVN
T1 sequence (P18507 40-467 isoform P18507-1 limits assumed): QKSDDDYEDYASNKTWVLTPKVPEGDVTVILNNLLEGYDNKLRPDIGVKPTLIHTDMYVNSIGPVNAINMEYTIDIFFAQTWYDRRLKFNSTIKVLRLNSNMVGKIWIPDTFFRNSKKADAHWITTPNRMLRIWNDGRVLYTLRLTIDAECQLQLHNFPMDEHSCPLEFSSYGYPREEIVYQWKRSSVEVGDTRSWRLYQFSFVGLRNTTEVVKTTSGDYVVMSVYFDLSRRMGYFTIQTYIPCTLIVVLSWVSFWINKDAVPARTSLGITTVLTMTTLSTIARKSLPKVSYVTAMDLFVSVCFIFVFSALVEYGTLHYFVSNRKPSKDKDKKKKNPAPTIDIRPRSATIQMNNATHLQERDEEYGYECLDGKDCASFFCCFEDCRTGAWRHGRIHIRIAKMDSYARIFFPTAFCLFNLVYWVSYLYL
T5 sequence (P47869 29-451): as the sequence (P47869 29-451) above
T5 sequence (P47870 25-512 partner limits assumed): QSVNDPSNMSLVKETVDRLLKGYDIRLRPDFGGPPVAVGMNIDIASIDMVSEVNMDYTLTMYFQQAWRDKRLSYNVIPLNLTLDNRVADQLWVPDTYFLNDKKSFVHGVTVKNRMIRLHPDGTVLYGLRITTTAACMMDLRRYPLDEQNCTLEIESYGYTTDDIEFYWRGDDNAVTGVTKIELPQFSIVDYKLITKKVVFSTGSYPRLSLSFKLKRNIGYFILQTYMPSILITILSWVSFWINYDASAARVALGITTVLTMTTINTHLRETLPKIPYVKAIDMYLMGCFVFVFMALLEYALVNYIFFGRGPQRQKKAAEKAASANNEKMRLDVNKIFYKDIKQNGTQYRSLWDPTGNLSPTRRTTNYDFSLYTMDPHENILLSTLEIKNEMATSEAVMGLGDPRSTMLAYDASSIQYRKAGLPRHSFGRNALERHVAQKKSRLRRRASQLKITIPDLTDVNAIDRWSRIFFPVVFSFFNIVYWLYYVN
T5 sequence (P18507 40-467 isoform P18507-1 limits assumed): as the sequence (P18507 40-467 isoform P18507-1 limits assumed) above
Sequence of α5 subtype containing GABA-A receptors (P19969 32-464 limits assumed): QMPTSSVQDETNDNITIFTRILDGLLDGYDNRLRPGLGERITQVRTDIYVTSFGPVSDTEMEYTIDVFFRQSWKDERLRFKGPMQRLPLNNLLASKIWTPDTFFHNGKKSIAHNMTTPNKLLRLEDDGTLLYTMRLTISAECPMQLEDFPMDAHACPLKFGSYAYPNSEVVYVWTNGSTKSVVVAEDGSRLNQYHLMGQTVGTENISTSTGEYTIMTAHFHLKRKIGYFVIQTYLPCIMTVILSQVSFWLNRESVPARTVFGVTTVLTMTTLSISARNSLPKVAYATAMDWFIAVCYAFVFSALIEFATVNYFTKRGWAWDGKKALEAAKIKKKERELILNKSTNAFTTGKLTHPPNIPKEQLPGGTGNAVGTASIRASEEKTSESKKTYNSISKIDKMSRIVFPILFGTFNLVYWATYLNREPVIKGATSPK
Sequence of α5 subtype containing GABA-A receptors (P18508 39-466): as the sequence (P18507 40-467 isoform P18507-1 limits assumed) above
Sequence of α5 subtype containing GABA-A receptors (P63079 26-473 partner): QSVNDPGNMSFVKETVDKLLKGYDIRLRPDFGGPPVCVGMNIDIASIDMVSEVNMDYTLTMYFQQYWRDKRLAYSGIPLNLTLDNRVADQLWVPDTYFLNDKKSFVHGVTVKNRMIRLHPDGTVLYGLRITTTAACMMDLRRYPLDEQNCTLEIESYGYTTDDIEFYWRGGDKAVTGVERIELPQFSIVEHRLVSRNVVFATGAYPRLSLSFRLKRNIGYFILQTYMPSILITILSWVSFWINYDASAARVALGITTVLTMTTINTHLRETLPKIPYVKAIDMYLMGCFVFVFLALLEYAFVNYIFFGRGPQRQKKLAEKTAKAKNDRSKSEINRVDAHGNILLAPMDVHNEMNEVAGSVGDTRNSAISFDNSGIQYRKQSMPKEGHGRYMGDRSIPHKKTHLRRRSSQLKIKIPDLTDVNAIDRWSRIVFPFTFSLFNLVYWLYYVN

**Q.** Which results are given for `CCOC(=O)c1ncn2c1[C@@H]1CCCN1C(=O)c1cc(OC)ccc1-2` [FG 8094, 9H-imidazo[1,5-a]pyrrolo[2,1-C][1,4]benzodiazepine-1-carboxylic acid, 11, 12, 13, 13a-tetrahydro-7-methoxy-9-oxo-, ethyl ester, (S)-(9CI)]?
**A.** pro-convulsant effects [1]: devoid of pro-convulsant effects; occupancy of α5 subtype containing GABA-A receptors in the brain [2]: approximately 85%; blood levels [3]: greater than 100 ng/ml; duration of blood levels greater than 100 ng/ml [3]: more than 6 hours; concentration at 30 min [4]: 13.2 nM; occupancy of α2/3 receptors ([5]; 1.0 mg/kg): less than 35%; percentage inhibition of in vivo [3H]Ro 15-1788 binding, spinal cord ([5]; 1 mg/kg ip): 33.8 ± 7.4; percentage inhibition of in vivo [3H]Ro 15-1788 binding, spinal cord ([5]; 10 mg/kg ip): 74.2 ± 3.8; displacement of [3H]Ro 15-1788 binding, whole brain ([6]; 10.0 mg/kg intraperitoneally, p<0.05): significantly displaced; displacement of specific [3H]Ro 15-1788 binding, whole brain ([6]; intraperitoneally at doses of up to 3.0 mg/kg): did not significantly displace; Ki [7]: 27.4 ± 2.5 nM; Ki [8]: 48.5 ± 6 nM; Ki [9]: 24.5 ± 2 nM; threshold dose of PTZ to clonic or tonic seizure [10]: no significant effect of treatment; occupancy of non-α5 subtype containing GABA-A receptors [11]: did not significantly occupy; functional effect on GABA EC20 current, α1β2γ2 [12]: no intrinsic effect; functional effect on GABA EC20 current, α3β2γ2 [13]: partial receptor inverse agonist; functional effect on GABA EC20 current, α2β2γ2 [14]: partial receptor inverse agonist; functional effect on GABA EC20 current, α5β2γ2 [15]: full receptor inverse agonist
